# How the values were obtained:
# [1] = Chiral stability at pH 7.4 (enantiomeric excess by Chiral SFC after incubation); assay type: physicochemical; conditions: buffered solution pH 7.4, 5 μM
# Experimental: The chiral stability of Enantiomer 10B (R=OMe) was evaluated by determination of the enantiomeric excess (ee %) after incubation for 24 h and 48 h in a buffered solution at pH 7.4 at 40° C. and 60° C. To assess the influence of the methoxy-substituent of Enantiomer 10B (R=OMe) on the stability against racemization, the chiral stability of Enantiomer 10′B (R=H) was tested under the same conditions. To this end, 5 μM buffered (pH=7.4) solutions of 10B and 10′B were prepared by mixing 25 μL of a 100 μM solution of 10B and 10′B in DMSO with 475 μL aqueous buffer pH 7.4. Samples were taken 24 h and 48 h after incubation at 40° C. and 60° C. The analytical samples were analyzed by Chiral SFC (MS detection) and the chiral purity was expressed as the enantiomeric excess (ee %=% enantiomer B−% enantiomer A).
# DENV-1 strain TC974#666 = test: Tetravalent RT-qPCR assay Protocol A, serotype 1; assay type: cell-based; conditions: Dengue virus, DENV1, 72 h; RT-qPCR serotype 1 TC974#666, Vero cells, day 3
# Experimental: (§1) The antiviral activity of the compounds of the invention was tested against DENV-1 strain TC974#666 (NCPV; Table 6), DENV-2 strain 16681 (Table 7), DENV-3 strain H87 (NCPV; Table 8) and DENV-4 strains H241 (NCPV; Table 9) in a RT-qPCR assay. Therefore, Vero cells were infected with either DENV-1, or -2, or -3, or -4 in the presence or absence of test compounds. At day 3 post-infection, the cells were lysed and cell lysates were used to prepare cDNA of both a viral target (the 3′UTR of DENV; table 2) and a cellular reference gene (β-actin, table 2). Subsequently, a duplex real time PCR was performed on a Lightcycler480 instrument. The generated Cp value is inversely proportional to the amount of RNA expression of these targets. Inhibition of DENV replication by a test compound result in a shift of Cp's for the 3′UTR gene. On the other hand, if a test compound is toxic to the cells, a similar effect on β-actin expression will be observed. The comparative ΔΔCp method is used to calculate EC50, which is based on the relative gene expression of the target gene (3′UTR) normalized with the cellular housekeeping gene (β-actin).
# (§2) The culture medium consisted of minimal essential medium supplemented with 2% of heat-inactivated fetal calf serum, 0.04% gentamycin (50 mg/mL) and 2 mM of L-glutamine. Vero cells, obtained from ECACC, were suspended in culture medium and 75 μL/well was added in 96-well plates (10000 cells/well), which already contain the antiviral compounds. Typically, these plates contain a 4-fold serial dilution of 9 dilution steps of the test compound at 200 times the final concentration in 100% DMSO (500 nL; final concentration range: 25 μM-0.00038 μM). In addition, each plate contains wells which are assigned as virus controls (containing cells and virus in the absence of compound) and cell controls (containing cells in the absence of virus and compound). Once the cells were added in the plates, the plates were incubated in a fully humidified incubator (37° C., 5% CO2) until the next day. Then, DENV-1 strain TC974#666 at an MOI of 0.6, DENV-2 strain 16681 at an MOI of 0.01, DENV-3 strain H87 at an MOI of 1.0 and DENV-4 strains H241 at an MOI of 0.2 and SG/06K2270DK1/2005 at an MOI of 0.16, were added. Therefore, 25 μL of virus suspension was added to all the wells containing test compound and to the wells assigned as virus control. In parallel, 25 μL of culture medium was added to the cell controls. Next, the plates were incubated for 3 days in a fully humidified incubator (37° C., 5% CO2). After 3 days, the supernatant was removed from the wells and the cells were washed twice with ice-cold PBS (˜100 μL). The cell pellets within the 96-well plates were stored at −80° C. for at least 1 day. Next, RNA was extracted using the Cells-to-CT™ lysis kit, according to the manufacture's guideline (Applied Biosystems). The cell lysates can be stored at −80° C. or immediately used in the reverse transcription step.
# (§3) In preparation of the reverse transcription step, mix A (table 3A) was prepared and 7.57 μL/well was dispensed in a 96-well plate. After addition of 5 μL of the cell lysates, a five minute denaturation step at 75° C. was performed (table 3B). Afterwards, 7.43 μL of mix B was added (table 3C) and the reverse transcription step was initiated (table 3D) to generate cDNA.
# (§4) Finally, a RT-qPCR mix was prepared, mix C (table 4A), dispensed in 96-well LightCycler qPCR plates to which 3 μL of cDNA was added and the qPCR was performed according to the conditions in table 4B on a LightCycler 480. Using the LightCycler software and an in-house LIMS system, dose response curves for each compound were calculated and the half maximal effective concentration (EC50) and the half maximal cytotoxic concentration (CC50) were determined.
# DENV-2 strain 16681 = test: Tetravalent RT-qPCR assay Protocol A, serotype 2; assay type: cell-based; conditions: Dengue virus, DENV2, 72 h; RT-qPCR serotype 2 16681, Vero cells, day 3
# Experimental: as §1, §2, §3, §4
# DENV-3 strain H87 = test: Tetravalent RT-qPCR assay Protocol A, serotype 3; assay type: cell-based; conditions: Dengue virus, DENV3, 72 h; RT-qPCR serotype 3 H87, Vero cells, day 3
# Experimental: as §1, §2, §3, §4
# DENV-4 strains H241 = test: Tetravalent RT-qPCR assay Protocol A, serotype 4; assay type: cell-based; conditions: Dengue virus, DENV4, 72 h; RT-qPCR serotype 4 H241, Vero cells, day 3
# Experimental: as §1, §2, §3, §4
# in vitro = assay type: cell-based; conditions: African green monkey, CC50
# Experimental: as §1, §2, §4
smiles,measurement,setting,value
"COc1cc(NC(C(=O)c2c[nH]c3cc(OC)c(C)cc23)c2ccc(F)cc2OC)cc(S(C)(=O)=O)c1 (single isomer, unassigned) [Enantiomer 10B, 2-(4-fluoro-2-methoxyphenyl)-2-((3-methoxy-5-(methylsulfonyl)phenyl)amino)-1-(6-methoxy-5-methyl-1H-indol-3-yl)ethanone]",ee %,"[1]; 40° C., 24 h",100%
same,ee %,"[1]; 40° C., 48 h",100%
same,ee %,"[1]; 60° C., 24 h",97%
same,ee %,"[1]; 60° C., 48 h",97%
same,EC50,DENV-1 strain TC974#666,4.46 nM
same,EC50,DENV-2 strain 16681,0.605 nM
same,EC50,DENV-3 strain H87,55.4 nM
same,EC50,DENV-4 strains H241,109 nM
same,CC50 at 3 days,in vitro,5140 nM

# Source: patent publication US10029984B2, “Mono- or di-substituted indole derivatives as dengue viral replication inhibitors” (Janssen Pharmaceuticals, Inc., priority 2015, dated 2018)
